Experimental data taken from the NIST ThermoML archive (doi:10.1021/je400395u).

Experiment: mn = molality of the nth substance listed, in mol/kg
Settings: 100 kPa, Liquid; for viscosity: Capillary tube (Ostwald / Ubbelohde) method; for mass density: Vibrating tube method

O=C1O[C@H]([C@@H](O)CO)C(O)=C1O [L-ascorbic acid] + O
Settings | mass density, 293.15 K [kg/m3] | mass density, 303.15 K [kg/m3] | mass density, 313.15 K [kg/m3] | mass density, 323.15 K [kg/m3] | viscosity, 293.15 K [mPa·s] | viscosity, 303.15 K [mPa·s] | viscosity, 313.15 K [mPa·s] | viscosity, 323.15 K [mPa·s]
m1 = 0.1 | 1005.25 | 1002.56 | 999.06 | 994.78 | 1.042 | 0.828 | 0.677 | 0.565
m1 = 0.2 | 1012.12 | 1009.33 | 1005.69 | 1001.31 | 1.09 | 0.858 | 0.699 | 0.584
m1 = 0.2002 | 1012.12 | 1009.33 | 1005.69 | 1001.31 | 1.09 | 0.858 | 0.699 | 0.584
m1 = 0.3 | 1018.82 | 1015.91 | 1012.2 | 1007.78 | 1.128 | 0.894 | 0.724 | 0.603
m1 = 0.3141 | 1018.82 | 1015.91 | 1012.2 | 1007.78 | 1.128 | 0.894 | 0.724 | 0.603
m1 = 0.4 | 1025.4 | 1022.39 | 1018.62 | 1014.08 | 1.167 | 0.922 | 0.751 | 0.623

OC[C@@H](O)[C@@H](O)[C@H](O)[C@H](O)CO [mannitol] + O
Settings | mass density, m1 = 0.2003 [kg/m3] | mass density, m1 = 0.4001 [kg/m3] | mass density, m1 = 0.5999 [kg/m3] | mass density, m1 = 0.7997 [kg/m3] | mass density, m1 = 1 [kg/m3] | viscosity, m1 = 0.2003 [mPa·s] | viscosity, m1 = 0.4001 [mPa·s] | viscosity, m1 = 0.5999 [mPa·s] | viscosity, m1 = 0.7997 [mPa·s] | viscosity, m1 = 1 [mPa·s]
293.15 K | 1010.6 | 1022.32 | 1033.48 | 1044.08 | 1054.22 | 1.106 | 1.219 | 1.345 | 1.486 | 1.634
303.15 K | 1007.89 | 1019.47 | 1030.47 | 1040.9 | 1050.86 | 0.875 | 0.957 | 1.048 | 1.151 | 1.256
313.15 K | 1004.33 | 1015.78 | 1026.64 | 1036.96 | 1046.81 | 0.713 | 0.774 | 0.842 | 0.918 | 0.996
323.15 K | 1000.02 | 1011.34 | 1022.08 | 1032.29 | 1042.03 | 0.592 | 0.64 | 0.693 | 0.751 | 0.811

OC[C@@H](O)[C@@H](O)CO [meso-1,2,3,4-butanetetrol] + O
Settings | mass density, m1 = 0.2002 [kg/m3] | mass density, m1 = 0.4001 [kg/m3] | mass density, m1 = 0.6001 [kg/m3] | mass density, m1 = 0.7984 [kg/m3] | mass density, m1 = 0.9998 [kg/m3] | viscosity, m1 = 0.2002 [mPa·s] | viscosity, m1 = 0.4001 [mPa·s] | viscosity, m1 = 0.6001 [mPa·s] | viscosity, m1 = 0.7984 [mPa·s] | viscosity, m1 = 0.9998 [mPa·s]
293.15 K | 1005.26 | 1012.03 | 1018.54 | 1024.74 | 1030.79 | 1.069 | 1.134 | 1.204 | 1.278 | 1.358
303.15 K | 1002.58 | 1009.24 | 1015.65 | 1021.76 | 1027.73 | 0.849 | 0.895 | 0.947 | 1.001 | 1.058
313.15 K | 999.05 | 1005.61 | 1011.9 | 1017.92 | 1023.81 | 0.69 | 0.727 | 0.766 | 0.806 | 0.849
323.15 K | 994.8 | 1001.29 | 1007.55 | 1013.53 | 1019.39 | 0.576 | 0.604 | 0.634 | 0.665 | 0.698

OC[C@@H](O)[C@H](O)[C@@H](O)CO [xylitol] + O
Settings | mass density, m1 = 0.2002 [kg/m3] | mass density, m1 = 0.4 [kg/m3] | mass density, m1 = 0.5996 [kg/m3] | mass density, m1 = 0.7997 [kg/m3] | mass density, m1 = 1 [kg/m3] | viscosity, m1 = 0.2002 [mPa·s] | viscosity, m1 = 0.4 [mPa·s] | viscosity, m1 = 0.5996 [mPa·s] | viscosity, m1 = 0.7997 [mPa·s] | viscosity, m1 = 1 [mPa·s]
293.15 K | 1008.14 | 1017.61 | 1026.67 | 1035.36 | 1043.71 | 1.081 | 1.168 | 1.249 | 1.343 | 1.449
303.15 K | 1005.4 | 1014.72 | 1023.62 | 1032.15 | 1040.36 | 0.858 | 0.917 | 0.981 | 1.056 | 1.125
313.15 K | 1001.83 | 1010.99 | 1019.76 | 1028.15 | 1036.24 | 0.699 | 0.743 | 0.792 | 0.845 | 0.901
323.15 K | 997.51 | 1006.53 | 1015.16 | 1023.43 | 1031.37 | 0.582 | 0.617 | 0.655 | 0.695 | 0.739
